Reference: the CombiSolv-Exp solvation set (Vermeire and Green 2021)

Assay: solvent given as SMILES

COc1cc(NS(=O)(=O)c2ccc(N)cc2)nc(OC)n1
Settings	solvation free energy, 298 K [kcal/mol]
in O	-18.9

C=CCCC=C
Settings	solvation free energy, 298 K [kcal/mol]
in C=CCCCCCCCCCCCCCC	-3.36
in CCCCCCCCCCCCCCCC	-3.48
in CN1CCCC1=O	-3.23
in CS(C)=O	-2.74
in O	0.97

ClCCl
Settings	solvation free energy, 298 K [kcal/mol]
in C1CCOC1	-4.27
in C1COCCO1	-4.09
in C=CCCCCCCCCCCCCCC	-2.77
in CC#N	-3.99
in CC(=O)N(C)C	-4.34
in CC(C)=O	-4.13
in CC(C)CC(C)(C)C	-2.84
in CC(C)O	-3.26
in CCC(C)=O	-4.05
in CCCCC	-3.09
in CCCCCCC	-2.91
in CCCCCCCC	-2.86
in CCCCCCCCC=CCCCCCCCC(=O)OCC(COC(=O)CCCCCCCC=CCCCCCCCC)OC(=O)CCCCCCCC=CCCCCCCCC	-3.37
in CCCCCCCCCCCCCC	-2.67
in CCCCCCCCCCCCCCCC	-2.72
in CCCCCCCCCCCCO	-2.91
in CCCCCCCCN(CCCCCCCC)CCCCCCCC	-2.82
in CCCCCCCCO	-3.08
in CCCCCN(CCCCC)CCCCC	-2.99
in CCCCCO	-3.19
in CCCCCl	-3.55
in CCCCN(C=O)CCCC	-3.92
in CCCCN(CCCC)CCCC	-2.87
in CCCCO	-3.29
in CCCCOC	-3.78
in CCCCOCCCC	-3.21
in CCCOCCC	-3.51
in CCN1CCCC1=O	-4.29
in CCN(CC)C(C)=O	-4.28
in CCNC(C)=O	-3.72
in CCNC=O	-3.7
in CCO	-3.36
in CCOC(=O)c1ccccc1C(=O)OCC	-3.51
in CCOC(C)=O	-4.04
in CCOCC	-3.87
in CN1CCCC1=O	-4.23
in CN1CCCCC1=O	-4.45
in CNC(C)=O	-3.74
in CO	-3.49
in COC(C)=O	-4.03
in CS(C)=O	-4.13
in Cc1ccc(C)cc1	-3.55
in Cc1cccc(C)c1	-3.58
in Cc1ccccc1C	-3.58
in ClC(Cl)(Cl)Cl	-3.36
in ClC(Cl)Cl	-3.62
in ClCCCl	-3.72
in Clc1ccccc1	-3.53
in N#Cc1ccccc1	-3.78
in NC=O	-2.66
in O	-1.32
in O=C1CCCCC1	-4.13
in [2H]O[2H]	-1.5

C1=CCCCC1
Settings	solvation free energy, 298 K [kcal/mol]
in C1CCC2CCCCC2C1	-4.21
in C1CCC(C2CCCCC2)CC1	-4.18
in CC#N	-3.43
in CC(=O)N(C)C	-3.48
in CCC(C)=O	-4
in CCCCCCCCO	-3.86
in CCCCCl	-4.37
in CCCCN(C=O)CCCC	-3.89
in CCN1CCCC1=O	-3.79
in CCN(CC)C(C)=O	-3.85
in CCNC(C)=O	-3.67
in CCNC=O	-3.52
in CN1CCCC1=O	-3.7
in CN1CCCCC1=O	-3.75
in CN(C)C=O	-3.66
in CNC(C)=O	-3.52
in CNC=O	-3.26
in COCCO	-3.48
in CS(C)=O	-3.13
in N#Cc1ccccc1	-3.95
in NC=O	-1.87
in O	0.36
in O=CN1CCOCC1	-3.21
in OCCO	-2
in OCCOCCO	-2.63
in OCCOCCOCCO	-2.73
in c1ccc2c(c1)CCCC2	-4.28
in c1ccc(C2CCCCC2)cc1	-4.19
in c1ccccc1	-4.47

COC(C)C
Settings	solvation free energy, 298 K [kcal/mol]
in O	-2.01

O=S1OCC2C(CO1)C1(Cl)C(Cl)=C(Cl)C2(Cl)C1(Cl)Cl (centres undefined)
Settings	solvation free energy, 298 K [kcal/mol]
in CCCCCCCCO	-13

CCNc1nc(NCC)nc(OC)n1
Settings	solvation free energy, 298 K [kcal/mol]
in O	-10.6

Cc1cnccn1
Settings	solvation free energy, 298 K [kcal/mol]
in O	-5.51

CC12C=CC(C1)C(C)(C)C2 (centres undefined)
Settings	solvation free energy, 298 K [kcal/mol]
in O	0.64

CCCC=CC=O
Settings	solvation free energy, 298 K [kcal/mol]
in O	-3.68

CC(C)(C)Cl
Settings	solvation free energy, 298 K [kcal/mol]
in Brc1cccc2ccccc12	-3.15
in Brc1ccccc1	-3.44
in C1CCCCC1	-3.64
in C1CCOCC1	-3.82
in C1COCCO1	-3.36
in C=CCCCCCCCCCCCCCC	-3.07
in CC(=O)N(C)C	-3.1
in CC(=O)OCc1ccccc1	-3.28
in CC(C)(C)O	-2.95
in CC(C)=O	-3.46
in CC(C)CC(C)(C)C	-3.29
in CC(C)OC(C)C	-3.53
in CC(O)C(C)O	-2.37
in CC(O)CCO	-2.14
in CC(O)CO	-2.29
in CCC(C)=O	-3.66
in CCC(O)CO	-2.76
in CCCCCC	-3.43
in CCCCCCC	-3.47
in CCCCCCCC	-3.35
in CCCCCCO	-3.14
in CCCCCO	-3.23
in CCCCO	-3.08
in CCO	-3.22
in CCOC(C)=O	-3.66
in CCOCC	-3.38
in CN1CCCC1=O	-2.97
in CN(C)C=O	-3.15
in CNC=O	-3.02
in CO	-3.11
in COC(C)(C)C	-3.7
in COCCO	-3.3
in Cc1ccc(C)cc1	-3.58
in ClC(Cl)(Cl)Cl	-3.66
in ClCCCl	-3.69
in Clc1ccccc1	-3.56
in N#Cc1ccccc1	-3.15
in O	1.09
in O=C1CCCCC1	-3.64
in OCCO	-1.8
in OCCOCCO	-2.39
in OCCOCCOCCO	-2.49
in c1ccc2ncccc2c1	-3.18
in c1ccccc1	-3.93

CCCN(CCC)c1c([N+](=O)[O-])cc(S(C)(=O)=O)cc1[N+](=O)[O-]
Settings	solvation free energy, 298 K [kcal/mol]
in O	-7.98

CCCCCCCC(=O)c1c(C)[nH]n(-c2ccccc2)c1=O
Settings	solvation free energy, 298 K [kcal/mol]
in O	-8.85

Clc1ccc(-c2ccc(Cl)cc2Cl)cc1
Settings	solvation free energy, 298 K [kcal/mol]
in CCCCCCCCO	-10.7
in O	-2.77

C=C(C)C1CCC(C)C(=O)C1 (centres undefined)
Settings	solvation free energy, 298 K [kcal/mol]
in O	-3.75

FC(F)(F)C(F)(F)C(F)(F)C(F)(F)C(F)(F)C(F)(F)C(F)(F)F
Settings	solvation free energy, 298 K [kcal/mol]
in CCCCCCC	-2.35
in CCCCO	-1.29
in CCCO	-1.24
in S=C=S	-0.45

CC=O
Settings	solvation free energy, 298 K [kcal/mol]
in CC(=O)N(C)C	-3.22
in CC(C)CCCC(C)CCCC(C)CCCCC(C)CCCC(C)CCCC(C)C	-2.26
in CCCCCCCCCCCCCCCC	-1.51
in CCCCCCCCO	-3.65
in CCCCN(C=O)CCCC	-2.78
in CCN1CCCC1=O	-3.05
in CCN(CC)C(C)=O	-3.06
in CCNC(C)=O	-2.73
in CN1CCCCC1=O	-3.04
in CNC(C)=O	-2.85
in CO	-4.83
in O	-3.44

Cc1cc(O)ccc1Cl
Settings	solvation free energy, 298 K [kcal/mol]
in O	-6.79

CC(C(=O)O)c1ccc(-c2ccccc2)c(F)c1 (centres undefined)
Settings	solvation free energy, 298 K [kcal/mol]
in C1COCCO1	-16.2
in CC(C)=O	-16.1
in CCCCCCCO	-15.6
in CCCCCCO	-15.6
in CCCCCO	-15.7
in CCCCO	-15.7
in CCCO	-15.8
in CCO	-15.9
in CCOC(C)=O	-15.9
in CO	-15.9
in O	-8.42

CC1CCC(C)(C)C1 (centres undefined)
Settings	solvation free energy, 298 K [kcal/mol]
in O	2.47

CNC=O
Settings	solvation free energy, 298 K [kcal/mol]
in C1CCCCC1	-3.86
in CC(C)=O	-7.35
in CCCCCCC	-3.68
in O	-8.87

CCCCCN(C)N=O
Settings	solvation free energy, 298 K [kcal/mol]
in O	-5.05

CC(C)CCCCCCOC(=O)c1ccccc1C(=O)OCCCCCCC(C)C
Settings	solvation free energy, 298 K [kcal/mol]
in O	-6.14

CCCC(=O)OCC
Settings	solvation free energy, 298 K [kcal/mol]
in CCCCCCCC	-4.69
in CCCCCCCCCCCCCCCC	-4.54
in CCCCCCCCO	-4.86
in CN1CCCC1=O	-4.9
in O	-2.52
in O=CN1CCOCC1	-4.61
in [2H]O[2H]	-2.59

CC12CCC(=O)C=C1CCC1C2C(O)CC2(C)C1CCC2(O)C(=O)CO (centres undefined)
Settings	solvation free energy, 298 K [kcal/mol]
in C=CCCCCCCC=C	-21.7
in C=CCCCCCCCCCCCCCC	-20.9
in O	-25.4

O=C1NC(=O)c2ccccc21
Settings	solvation free energy, 298 K [kcal/mol]
in O	-9.61

CC(C)Nc1nc(Cl)nc(NC(C)C)n1
Settings	solvation free energy, 298 K [kcal/mol]
in O	-9.55

Cc1ccccc1C(=O)O
Settings	solvation free energy, 298 K [kcal/mol]
in C1CCOC1	-9.3
in C1COCCO1	-9.26
in CC(C)(C)O	-9.12
in CC(C)CCO	-8.95
in CC(C)CO	-8.82
in CC(C)O	-9.06
in CC(C)OC(C)C	-8.56
in CCC(C)O	-9.01
in CCCC(C)O	-8.98
in CCCCCCCCCCO	-8.7
in CCCCCCCCO	-8.76
in CCCCCCCO	-8.81
in CCCCCCO	-8.86
in CCCCCO	-8.91
in CCCCCOC(C)=O	-8.7
in CCCCO	-8.96
in CCCCOC(C)=O	-8.76
in CCCO	-9.01
in CCO	-9.12
in CCOC(C)=O	-8.91
in CCOCC	-8.95
in COC(C)=O	-8.92
in O	-5.87

CCCCCCCCOC(=O)c1ccccc1C(=O)OCCCCCCCC
Settings	solvation free energy, 298 K [kcal/mol]
in O	-6.68
